Data taken from PMC11476342 (Cancers, 2024).

Legend:
J82 cisR = assay: MTT cell viability assay; format: cell-based, human
Description: (§1) The cell viability for determination of IC50 values and synergism studies was analyzed by MTT assay as previously described. […] For preincubation experiments, 1600 c/w (cells per well) for J82 and 1200 c/w for J82 cisR were used. After the incubation time, 25 µL MTT (3-(4,5-dimethylthiazol-2-yl)-2,5-diphenyltetrazolium bromide, Serva, Heidelberg, Germany) solution (5 mg/mL in phosphate-buffered saline) was added. The formazan was dissolved in 75 µL DMSO, and the absorption was measured at 540 nm and 690 nm with a microplate reader (ThermoFisher Multiskan, Thermo Scientific, Wesel, Germany).

J82 = assay: MTT cell viability assay; format: cell-based, human
Description: as §1

T24 LTT = assay: MTT cell viability assay; format: cell-based, human
Description: as §1

T24 = assay: MTT cell viability assay; format: cell-based, human
Description: as §1

HDAC 4 = target: T1, HDAC 4 (Homo sapiens, UniProt P56524); assay: Enzyme HDAC inhibition assay; format: biochemical; settings: recombinant enzyme, Boc-Lys-(Tfa)-AMC; read-out: HDAC4 IC50 ± SD
T1 construct: purchased Reaction Biology Corp (Malvern, PA, USA) KDA-21-279
T1 sequence (P56524 whole entry): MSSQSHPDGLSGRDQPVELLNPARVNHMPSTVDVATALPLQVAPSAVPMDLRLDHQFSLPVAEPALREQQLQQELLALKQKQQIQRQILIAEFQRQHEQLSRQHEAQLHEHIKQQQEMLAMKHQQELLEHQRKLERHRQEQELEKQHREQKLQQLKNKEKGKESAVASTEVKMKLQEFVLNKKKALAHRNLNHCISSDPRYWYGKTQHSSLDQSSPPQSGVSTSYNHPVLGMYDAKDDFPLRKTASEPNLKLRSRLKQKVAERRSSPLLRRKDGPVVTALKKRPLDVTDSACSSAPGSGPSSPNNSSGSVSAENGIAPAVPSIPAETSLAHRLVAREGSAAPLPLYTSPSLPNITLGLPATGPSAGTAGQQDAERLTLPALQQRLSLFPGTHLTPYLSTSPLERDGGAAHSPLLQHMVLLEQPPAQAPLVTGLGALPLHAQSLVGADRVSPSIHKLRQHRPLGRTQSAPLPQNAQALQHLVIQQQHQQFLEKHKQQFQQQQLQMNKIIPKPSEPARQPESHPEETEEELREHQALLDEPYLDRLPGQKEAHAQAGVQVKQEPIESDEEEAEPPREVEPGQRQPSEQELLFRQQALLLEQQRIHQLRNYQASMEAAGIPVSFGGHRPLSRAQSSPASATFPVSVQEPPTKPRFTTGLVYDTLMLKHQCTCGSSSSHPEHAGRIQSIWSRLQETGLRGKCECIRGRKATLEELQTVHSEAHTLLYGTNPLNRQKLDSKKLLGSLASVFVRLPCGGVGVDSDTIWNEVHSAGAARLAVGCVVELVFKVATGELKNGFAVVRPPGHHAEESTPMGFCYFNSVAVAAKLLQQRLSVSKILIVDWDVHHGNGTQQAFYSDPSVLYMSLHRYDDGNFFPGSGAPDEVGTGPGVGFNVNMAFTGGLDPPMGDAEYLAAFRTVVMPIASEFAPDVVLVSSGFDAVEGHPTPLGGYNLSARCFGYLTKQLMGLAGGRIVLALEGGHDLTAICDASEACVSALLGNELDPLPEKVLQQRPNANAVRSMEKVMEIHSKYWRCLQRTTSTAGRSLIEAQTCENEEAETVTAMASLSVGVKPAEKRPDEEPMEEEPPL
Description: (§2) The human recombinant enzymes were ordered from Reaction Biology Corp (Malvern, PA, USA).

HDAC 8 = target: T2, HDAC 8 (Homo sapiens, UniProt Q9BY41); assay: Enzyme HDAC inhibition assay; format: biochemical; settings: recombinant enzyme, Boc-Lys-(Tfa)-AMC; read-out: HDAC8 IC50 ± SD
T2 construct: purchased Reaction Biology Corp (Malvern, PA, USA) KDA-21-481
T2 sequence (Q9BY41 1-377): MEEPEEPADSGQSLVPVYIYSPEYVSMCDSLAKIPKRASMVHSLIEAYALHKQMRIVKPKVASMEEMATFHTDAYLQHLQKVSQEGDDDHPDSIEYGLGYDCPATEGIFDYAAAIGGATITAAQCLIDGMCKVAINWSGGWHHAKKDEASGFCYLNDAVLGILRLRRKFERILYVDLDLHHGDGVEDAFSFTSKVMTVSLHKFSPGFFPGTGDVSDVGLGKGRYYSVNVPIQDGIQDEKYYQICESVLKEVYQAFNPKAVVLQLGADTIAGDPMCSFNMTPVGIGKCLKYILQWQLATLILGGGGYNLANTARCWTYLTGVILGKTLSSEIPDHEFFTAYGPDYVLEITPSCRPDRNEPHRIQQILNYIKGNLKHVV
Description: as §2

caspase 3/7 = assay: Activation of caspase 3/7 (CellEvent, high content screening); format: cell-based, human; settings: single treatment, all four cell lines (J82, J82 cisR, T24, T24 LTT)
Description: Activation of caspase 3/7 was examined using the CellEvent Caspase-3/7 green detection reagent (Thermo Scientific, Wesel, Germany) according to the manufacturer’s instructions. The cells were seeded in 96-well-plates (Corning, Kaiserslautern, Germany) and treated with the indicated compounds for 48 h (J82 1600 c/w; J82 cisR 800 c/w; T24 1200 c/w; T24 LTT 3000 c/w). […] The supernatant was aspirated and a solution of CellEvent Caspase 3/7 green detection reagent (PBS, 1% heat inactivated fetal calf serum) was added to the cells for a final concentration of 2 µM. Hoechst 33342 (10 mg/mL in water, Sigma-Aldrich, Steinheim, Germany) was used for nuclei staining. The cells were incubated for 30 min at 37 °C and 5% CO2 before imaging by using the Thermo Fischer ArrayScan XTI high content screening (HCS) system with a 10 × magnification (Thermo Scientific, Wesel, Germany).

HDAC 1-3 and 6 = tested on: HDAC 1-3 and 6; design: method as in PMID 34582215; settings: cited from earlier work
BRDs = tested on: BRDs; design: method as in PMID 34582215; settings: cited from earlier work
[1] = 7.5 µM of 20, without cisplatin (Figure 10, S17)

**Q.** What does the source list for CCc1c(C(=O)Nc2cc(/C=C/C(=O)NO)ccc2OC)[nH]c(C)c1C(C)=O [compound 20]?
**A.** decrease in cell viability (J82 cisR; [1]): 60–70%; IC50 (J82 cisR; Homo sapiens, 72 h, MTT, 72 h, compound alone, read-out: IC50 ± SD): 7 ± 0.49 µM; decrease in cell viability (J82; [1]): 60–70%; IC50 (J82; Homo sapiens, J82, 72 h, MTT, 72 h, compound alone, read-out: IC50 ± SD): 7.17 ± 0.57 µM; decrease in cell viability (T24 LTT; [1]): 60–70%; IC50 (T24 LTT; Homo sapiens, MTT, 72 h, compound alone, read-out: IC50 ± SD): 4.66 ± 0.41 µM; decrease in cell viability (T24; [1]): 60–70%; IC50 (T24; Homo sapiens, T-24, MTT, 72 h, compound alone, read-out: IC50 ± SD): 6.95 ± 0.54 µM; IC50 (HDAC 4): 207 µM; IC50 (HDAC 8): 6.03 µM; caspase 3/7 activation (caspase 3/7): only weakly activated; inhibitory activity against HDAC 1-3 and 6 (HDAC 1-3 and 6): sub-micromolar; inhibitory activity to BRDs (BRDs): single-digit micromolar range
